From patent US20070202486A1, “Method Of Assaying Substance Capable Of Changing Mitochondrial Membrane Potential” (Mitsubishi Pharma Corporation, priority 2004, published 2007)

How the values were obtained:
[1] = tested on: Griardi cells; settings: JC-1, flow cytometry; cited from earlier work
[2] = tested on: Girardi cells; experiment: Mitochondrial depolarization inhibition, JC-1 fluorescence ratio, ouabain/KCl-induced depolarization (Example 1); type: cell-based, human; settings: 1 mM ouabain + 60 mM KCl, 2 hr
Description: First of all, Girardi cells are seeded on a plate usable for an optical measurement method, and cultured in a normal medium (MEM medium supplemented with additives, such as non-essential amino acid, fetal bovine serum and the like). Then, the medium is changed to a normal medium containing JC-1 to allow incorporation of JC-1 into the cell, the medium is changed to a normal medium containing a test substance, and the cells are cultured. Then, a depolarization-inducing medium is used (normal medium containing ouabain and KCl; in the evaluation method of the present invention, ouabain is used at a concentration of 0.1 μM-3 mM, and KCl is used at a concentration of 20 mM-90 mM). The test substance may be added along with or after addition of a depolarization-inducing medium following incorporation of JC-1 into the cell. After addition of the depolarization-inducing medium, the culture time can be 1-24 hr. Thereafter, the fluorescence of JC-1 monomer and the fluorescence of J-aggregate are measured on a fluorescence plate reader (capable of excitation at around 488-490 nm, which is the excitation wavelength of JC-1, and capable of fluorescence detection around 527 nm, which is the fluorescence wavelength peak of JC-1 monomer and around 590-600 nm, which is the fluorescence wavelength of J-aggregate), and the fluorescence intensity ratio (monomer fluorescence intensity/J-aggregate fluorescence intensity) is calculated.
Girardi cells suspended in a normal medium [(MEM (GIBCO 11095-098) supplemented with 1% non-essential amino acid (MEM Non-Essential Amino Acids Solution 10 mM 100× GIBCO 11140-050), and 10% fetal bovine serum (BIOFLUIDS DIVISION Lot No. 302030))] were seeded to a 96-well clear bottom black plate (MATRIX MT4940) at 200 μL/well and cultured.
JC-1 (Molecular Probes T-3168, 1 mg/mL DMSO solution) was added to a phenol red-free normal medium [MEM (GIBCO 51200-038) supplemented with 1% non-essential amino acid (MEM Non-Essential Amino Acids Solution 10 mM 100× GIBCO 11140-050), 1% L-glutamine (L-Glutamine-200 mM 100×: GIBCO 25030-149) and 10% fetal bovine serum (BIOFLUIDS DIVISION: Lot No. 302030)] at 10 μL/mL, the mixture was stirred with a vortex mixer and centrifuged at 3000 rpm for 1 min and the supernatant was filtered through a syringe filter (0.22 μm, MILLIPORE). The medium in the 96-well plate was removed and the JC-1 solution was dispensed to a cell-seeded well at 50 μL/well. […]
After induction of depolarization, the plate was set on a fluorescence plate reader (TECAN, SpectraFluor) heated to 37° C., and the J-aggregate fluorescence was measured at 595 nm using an excitation wavelength of 485 nm. Then, the monomer fluorescence was measured at 535 nm using an excitation wavelength of 485 nm. […]

[3] = tested on: Griardi cells; settings: 3 hr low oxygen with metabolism inhibitor, then 1 hr normal medium; cited from earlier work

| Structure (SMILES) | mitochondrial depolarization inhibitory action (fluorescence intensity ratio monomer/J-aggregate) [2] | other results |
| --- | --- | --- |
| N#CC(C#N)=NNc1cccc(Cl)c1 [CCCP] |  | mitochondrial membrane potential (red fluorescence intensity of JC-1) [1]: decreased fluorescence intensity and depolarization of mitochondria were observed |
| COc1ccc([C@@H]2Sc3ccccc3N(CCN(C)C)C(=O)[C@@H]2OC(C)=O)cc1.Cl [diltiazem, diltiazem hydrochloride] | did not prevent mitochondrial depolarization |  |
| CC1(C)Oc2ccc(C#N)cc2[C@@H](N2CCCC2=O)[C@@H]1O [levcromakalim] | did not prevent mitochondrial depolarization |  |
| CC1(C)Oc2ccc(C#N)cc2[C@H](N(Cc2ncc[nH]2)c2ccc(Cl)cc2)[C@H]1O [BMS-191095] | mitochondrial depolarization inhibitory action |  |
| CC1=NS(=O)(=O)c2cc(Cl)ccc2N1 [diazoxide] | mitochondrial depolarization inhibitory action |  |
| Nc1ncnc2c1ncn2[C@@H]1O[C@H](CO)[C@@H](O)[C@H]1O [adenosine] |  | apoptosis [3]: strongly inhibited apoptosis |
